Laboratory results as given in patent publication US7109177B2, “Methods and compositions for the manufacture of C-3′ and C-4′ anthracycline antibiotics” (Houston Pharmaceuticals, Inc., priority 1999, dated 2006).
Where “and” joins values, the source holds several entries; their conditions need not be identical. Identical values can stand only once. Like-named read-outs stand apart in the source and are kept apart here.

Tests used:
[1] = tested on: human breast carcinoma MCF-7 cells; parameters: unit not given beside the values
human carcinoma KB cells = assay: MTT cytotoxicity assay, sensitive KB cells; format: cell-based
Description: (§1) In vitro drug cytotoxicities against human breast carcinoma wild-type MCF-7 and MRP-resistant MCF-7NP-16 cells were assessed by using the […], as previously reported (Green et al., 1984). […] Drugs were then added to the wells to achieve a final drug concentration ranging from 0.1 to 50 μg/mL. Four wells were used for each concentration. […] After a 4-hour incubation, 100 μL of buffer containing 50% N,N-dimethylformamide and 20% SDS was added to solubilize the MTT formazan. […] Results and Discussion
(§2) Thus, for the in vitro evaluation of substituted anthracyclines having C-3′ alkylated anthracyclines modified at benzyl ring and having 4′-substituted-benzylated anthracyclines, the inventors selected two sensitive cell lines: a human carcinoma KB and MCF-7 human breast cancer, the multi-drug-resistant (MDR) counterpart of KB (KBV1 carcinoma), which overexpresses MDR1 gene that encodes a membrane transport glycoprotein (P-gp), the MCF-7NVP-16 cell line that overexpresses the multi-drug-resistant associated protein (MRP), and the MCF-7/dox cell line which overexpresses MDR1 gene.

CEM leukemic cells = assay: Quantitative apoptotic DNA fragmentation assay; format: cell-based; settings: 24 h incubation
Source text: Results are from two independent studies carried out in duplicate.

[2] = tested on: KB-V1 (KBV1) carcinoma cells; assay: MTT cytotoxicity assay, multi-drug-resistant KB-V1 cells (MDR1/P-gp); format: cell-based, human; parameters: ID50 KBV1: unit not given here; settings: for Effectiveness as measured by resistance index (RI), in words: in vitro, compared with daunorubicin or doxorubicin
Description: as §1, §2

MCF-7/DOX cells = assay: MTT cytotoxicity assay, MCF-7/DOX cells (MDR1)
breast tumors = assay: In vivo prevention of tumor development in a mouse cancer model; settings: compared with buffer-treated control mice that develop tumors
Description: In an initial round of in vivo trials, a mouse model of human cancer with the histologic features and metastatic potential resembling tumors seen in humans (Katsumata et al., 1995) is used. The animals are treated with analogs of anthracyclines having C-3′-substitutions as described or anthracycline analogs with C-4′-substitutions synthesized in the present invention to determine the suppression of tumor development.
Two groups of mice of a suitable cancer model are treated with doses of substituted anthracyclines with substitutions at the C-3′-sugar or having C-4′-substituted sugar moietied. Several combinations and concentrations of the substituted anthracyclines are tested. Control mice are treated with buffer only.
The effect of substituted anthracyclines on the development of breast tumors is compared with the control group by examination of tumor size and histopathologic examination (breast tissue is cut and stained with hematoxylin and eosin) of breast tissue.

[3] = tested on: sensitive and MDR tumor cell lines; assay: In vitro evaluation of cytotoxicity compared with DOX (cell line not given); format: cell-based, human; settings: for Cytotoxicity compared to DOX, in words: in vitro evaluation; for Direct comparison of cytotoxicity with DOX, in words: effect of C-3′ and C-4′ substitutions on potency
Description: as §1, §2

[4] = Table 2, MTT assay, mean of at least 4 experiments

Description for MCF-7/VP-16 cells: Compounds synthesized using the methods described above were tested using a standard MTT. assay (Green et al., 1984) against human carcinoma sensitive (KB) and multi drug-resistant (KBV1) cells and MCF-7 and MCF-7/VP-16 resistant cells characterized as having the MRP (multi-drug resistant associated protein) phenotype.
In vitro drug cytotoxicities against human breast carcinoma wild-type MCF-7 and MRP-resistant MCF-7NP-16 cells were assessed by using the MT reduction assay, as previously reported (Green et al., 1984). […] Drugs were then added to the wells to achieve a final drug concentration ranging from 0.1 to 50 μg/mL. Four wells were used for each concentration. […] After a 4-hour incubation, 100 μL of buffer containing 50% N,N-dimethylformamide and 20% SDS was added to solubilize the MTT formazan.

With COc1cccc2c1C(=O)c1c(O)c3c(c(O)c1C2=O)C[C@@](O)(C(=O)CO)C[C@@H]3O[C@H]1C[C@H](N)[C@H](O)[C@H](C)O1 [DOX, doxorubicin, reference compound] as the compound, how does the “ID50 MCF-7” value ([1]; Table 3, EXP. 1) read?
Its value is 0.3.

What about the “ID50 MCF-7” value ([1]; Table 3, under EXP. 2) of the same compound?
The value was 0.50 ± 0.26 and 0.53 ± 0.25.

And the “ID50 MCF-7/VP-16” value (MCF-7/VP-16 cells; Table 3, EXP. 1)?
The value was 3.0.

And the “RI (MCF-7/VP-16 vs MCF-7)” value (MCF-7/VP-16 cells; Table 3, EXP. 1)?
The value was 10.

And the “ID50 MCF-7/VP-16” value (MCF-7/VP-16 cells; Table 3, under EXP. 2)?
The value was 8.3 ± 0.5 and 6.87 ± 0.58.

What about the “RI (MCF-7/VP-16 vs MCF-7)” value (MCF-7/VP-16 cells; Table 3, under EXP. 2) of the same compound?
The value was 16.6 and 13.

What about the “ID50 KB” value (human carcinoma KB cells; [4]) of the same compound?
The value was 0.50 ± 0.0 µg/mL and 0.43 ± 0.19 µg/mL.

What about the “ID50 KB” value (human carcinoma KB cells; Table 3, EXP. 1) of the same compound?
Its value is 2.35.

What about the “Fragmented DNA, % Total DNA” value (CEM leukemic cells; 0.1 μM) of the same compound?
The value was −0.2%.

And the “Fragmented DNA, % Total DNA” value (CEM leukemic cells; 0.5 μM)?
Its value is 27.1%.

What about the “Fragmented DNA, % Total DNA” value (CEM leukemic cells; 1 μM) of the same compound?
Its value is 28.7%.

And the “Fragmented DNA, % Total DNA” value (CEM leukemic cells; 2 μM)?
The value was 38.3%.

And the “ID50 KB-V1” value [2, 4]?
Its value is >100 µg/mL and 109 ± 28 µg/mL.

And the “RI (resistance index) KB-V1 vs KB” value ([2]; Table 2, higher RI = less effective against MDR)?
The value was over 200.

What about the “ID50 KBV1” value ([2]; Table 3, EXP. 1) of the same compound?
The value was over 100.

What about the “RI (KBV1 vs KB)” value ([2]; Table 3, EXP. 1) of the same compound?
Its value is over 42.6.

And the “ID50 KBV1” value ([2]; Table 3, under EXP. 2)?
The value was 174 ± 32 and >100.

And the “ID50 MCF-7/DOX” value (MCF-7/DOX cells; Table 3, EXP. 1)?
The value was over 100.

And the “RI (MCF-7/DOX vs MCF-7)” value (MCF-7/DOX cells; Table 3, EXP. 1)?
The value was over 333.

And the “ID50 MCF-7/DOX” value (MCF-7/DOX cells; Table 3, under EXP. 2)?
Its value is over 100.

What about the “RI (MCF-7/DOX vs MCF-7)” value (MCF-7/DOX cells; Table 3, under EXP. 2) of the same compound?
The value was over 189.

Which “Tumor development in treated mice, predicted” value (“Tumor development … predicted” below) (breast tumors) does the source give for CC(=O)O[C@H]1[C@@H](N=[N+]=[N-])C[C@@H](O[Si](C)(C)C(C)(C)C)O[C@H]1C [WP417, 4-O-acetyl-3-Azido-1-O-t-butyldimethylsilyl-2,3,6-trideoxy-β-L-lyxo hexapyranose] here?
Its value is “resistant to tumor development”.

Which “Tumor development … predicted” value (breast tumors) does the source give for C[C@@H]1O[C@H](O[Si](C)(C)C(C)(C)C)C[C@H](N=[N+]=[N-])[C@@H]1O [WP418, t-Butyldimethylsilyl 3-azido- -2,3,6-trideoxy-β-L-lyxo hexapyranose] here?
The value was “resistant to tumor development”.

What does the source list for CCCCC(=O)OCC(=O)[C@]1(O)Cc2c(O)c3c(c(O)c2[C@@H](O[C@H]2C[C@H](O)[C@H](OCc4ccccc4)[C@H](C)O2)C1)C(=O)c1c(OC)cccc1C3=O [WP571, 3-deamino-4-O-benzyl-3-O-hydroxy-14-O-pentanoyl-doxorubicin]?
Cytotoxicity compared to DOX, in words [3]: unusually potent cytotoxic agents; Tumor development in treated mice, predicted (breast tumors): resistant to tumor development

COc1cccc2c1C(=O)c1c(O)c3c(c(O)c1C2=O)C[C@@](O)(C(=O)CO)C[C@@H]3O[C@H]1C[C@H](O)[C@H](OCc2ccccc2)[C@H](C)O1 [WP727, 4-O-benzyl-3-deamino-3-hydroxy-doxorubicin] was tested. Which “Cytotoxicity compared to DOX, in words” value [3] did it give?
The value was “unusually potent cytotoxic agents”.

What about the “Tumor development … predicted” value (breast tumors) of the same compound?
The value was “resistant to tumor development”.

COc1cccc2c1C(=O)c1c(O)c3c(c(O)c1C2=O)C[C@@](O)(C(=O)CO)C[C@@H]3O[C@H]1C[C@H](N)[C@H](OCc2ccccc2)[C@H](C)O1 [WP744, 4′-O-Benzyl-doxorubicin] was tested. Which “ID50 MCF-7” value ([1]; Table 3, EXP. 1) did it give?
The value was 1.63 ± 0.5.

And the “Cytotoxicity compared to DOX, in words” value [3]?
Its value is “unusually potent cytotoxic agents”.

And the “ID50 MCF-7/VP-16” value (MCF-7/VP-16 cells; Table 3, EXP. 1)?
Its value is 2.3 ± 1.9.

What about the “RI (MCF-7/VP-16 vs MCF-7)” value (MCF-7/VP-16 cells; Table 3, EXP. 1) of the same compound?
The value was 1.41.

What about the “RI (MCF-7/VP-16 vs MCF-7)” value (MCF-7/VP-16 cells; Table 3, under EXP. 2) of the same compound?
Its value is 1.4 and 1.6.

What about the “ID50 KB” value (human carcinoma KB cells; Table 3, EXP. 1) of the same compound?
The value was 1.44 ± 0.45.

And the “Tumor development … predicted” value (breast tumors)?
Its value is “resistant to tumor development”.

What about the “Fragmented DNA, % Total DNA” value (CEM leukemic cells; 0.05 μM) of the same compound?
The value was 17.8%.

What about the “Fragmented DNA, % Total DNA” value (CEM leukemic cells; 0.1 μM) of the same compound?
The value was 31.3%.

What about the “Fragmented DNA, % Total DNA” value (CEM leukemic cells; 0.5 μM) of the same compound?
The value was 46.7%.

What about the “ID50 KBV1” value ([2]; Table 3, EXP. 1) of the same compound?
Its value is 2.76 ± 0.52.

What about the “RI (KBV1 vs KB)” value ([2]; Table 3, EXP. 1) of the same compound?
Its value is 1.84.

And the “ID50 KBV1” value ([2]; Table 3, under EXP. 2)?
The value was 2.1 ± 0.5 and 4.07 ± 1.85.

What about the “Effectiveness as measured by resistance index (RI), in words” value [2] of the same compound?
Its value is “significantly more effective”.

What about the “ID50 MCF-7/DOX” value (MCF-7/DOX cells; Table 3, EXP. 1) of the same compound?
The value was 5.25.

What about the “RI (MCF-7/DOX vs MCF-7)” value (MCF-7/DOX cells; Table 3, EXP. 1) of the same compound?
Its value is 3.22.

What about the “ID50 MCF-7/DOX” value (MCF-7/DOX cells; Table 3, under EXP. 2) of the same compound?
The value was 0.89 ± 0.10.

And the “RI (MCF-7/DOX vs MCF-7)” value (MCF-7/DOX cells; Table 3, under EXP. 2)?
Its value is 2.41.

How did the “Direct comparison of cytotoxicity with DOX, in words” value [3] turn out when COc1cccc2c1C(=O)c1c(O)c3c(c(O)c1C2=O)C[C@@](O)(C(=O)CO)C[C@@H]3O[C@H]1C[C@H](N)[C@@H](OCc2ccccc2)[C@H](C)O1 [WP750, 4′-O-Benzyl-4′epi-doxorubicin] was run?
Its value is “drastically increase the potency”.

And the “Cytotoxicity compared to DOX, in words” value [3]?
Its value is “unusually potent cytotoxic agents”.

And the “ID50 KB” value (human carcinoma KB cells; Table 3, under EXP. 2)?
Its value is 6.4.

And the “Tumor development … predicted” value (breast tumors)?
Its value is “resistant to tumor development”.

And the “ID50 KBV1” value ([2]; Table 3, under EXP. 2)?
Its value is 56 ± 29.

What about the “RI (KBV1 vs KB)” value ([2]; Table 3, under EXP. 2) of the same compound?
Its value is 8.8.

And the “Effectiveness as measured by resistance index (RI), in words” value [2]?
The value was “significantly more effective”.

For CC(=O)[C@]1(O)Cc2c(O)c3c(c(O)c2[C@@H](O[C@H]2C[C@H](N)[C@H](OCc4ccccc4)[C@H](C)O2)C1)C(=O)c1ccccc1C3=O [WP783, 4′-O-Benzyl-4-demethoxydaunorubicin], which “Direct comparison of cytotoxicity with DOX, in words” value [3] is on record?
Its value is “drastically increase the potency”.

And the “Cytotoxicity compared to DOX, in words” value [3]?
The value was “unusually potent cytotoxic agents”.

And the “ID50 KB” value (human carcinoma KB cells; Table 3, under EXP. 2)?
Its value is 0.43 ± 0.21.

And the “Tumor development … predicted” value (breast tumors)?
The value was “resistant to tumor development”.

And the “ID50 KBV1” value ([2]; Table 3, under EXP. 2)?
Its value is 1.1 ± 0.8.

What about the “RI (KBV1 vs KB)” value ([2]; Table 3, under EXP. 2) of the same compound?
Its value is 2.6.

And the “Effectiveness as measured by resistance index (RI), in words” value [2]?
The value was “significantly more effective”.

With CC(=O)[C@]1(O)Cc2c(O)c3c(c(O)c2[C@@H](O[C@H]2C[C@H](N)[C@H](OCc4ccc(F)cc4)[C@H](C)O2)C1)C(=O)c1ccccc1C3=O [WP797, 4′-(4-Fluoro-benzyloxy)-4-demethoxydaunorubicine] as the compound, how does the “Cytotoxicity compared to DOX, in words” value [3] read?
Its value is “unusually potent cytotoxic agents”.

What about the “Tumor development … predicted” value (breast tumors) of the same compound?
The value was “resistant to tumor development”.

Which results are given for COc1cccc2c1C(=O)c1c(O)c3c(c(O)c1C2=O)C[C@@](O)(C(=O)CO)C[C@@H]3O[C@H]1C[C@H](N)[C@H](OCc2c(F)cccc2F)[C@H](C)O1 [WP799, 4′-(2,6-difluoro-benzyloxy)-doxorubicine]?
Cytotoxicity compared to DOX, in words [3]: unusually potent cytotoxic agents; Tumor development in treated mice, predicted (breast tumors): resistant to tumor development
